Results from US9475842B2, “Hexadepsipeptide analogues as anticancer compounds” (PIRAMAL ENTERPRISES LIMITED, priority 2012, dated 2016).

Key:
HeLa (Cervical Cancer) = experiment: Monolayer assay (CCK-8 cytotoxicity); assay type: cell-based; details: Homo sapiens, 24 hrs exposure
Experimental: The assays were designed as in the reference, BMC Cancer, 2010, 10, 610, 1-11; the disclosure of which is incorporated by reference for the teaching of the assay.
Human tumour cell lines: Panc-1 (Pancreatic Cancer), HCT 116 (Colorectal Cancer), ACHN (Renal Cell Carcinoma), Calu-1 (Lung Carcinoma), MiaPaca2 (Pancreatic Cancer), FADU (Head and Neck Cancer), PC3 (prostate Cancer), G361 (Melanoma), MDA-MB435S (Melanoma), HeLa (Cervical Cancer) were grown in Minimal Essential Media with Eagle's Basal Salts (MEM-EBS) obtained from AMIMED (BioConcept-Switzerland). Tumour cell lines: MDA-MB231 (Breast Cancer), JURKAT (T cell leukaemia), H460 (Small Cell Lung Cancer) were cultured in RPMI 1640 (AMIMED, BioConcept, Switzerland) medium. All tumour cell lines were supplemented with 10% Foetal Bovine Serum (FBS) (GIBCO), 1% Penicillin/Streptomycin (Sigma) and 1% Anti-Anti (GIBCO) and grown in T-175 tissue culture flasks (Nunc). MCF-10A, a non-tumourigenic cell line, was cultured in Mammary Epithelial Basal Medium (MEBM) with all standard additions (Lonza, Catalog. No. CC-3150). All cells were grown in 5% CO2 incubator at 37° C. Cells were passaged at 80-90% confluence. Adherent cells were trypsinised using Trypsin-EDTA (Sigma) and maintained. All cell lines were purchased from ATCC (Rockville, Md., USA).
Compound of Formula (1a) [described in example 7] was dissolved in DMSO to give a required stock solution of 20 mM. Eight different concentrations of the compound of Formula (1a) were prepared by serial dilution of stock solution finally resulting in a (compared to the test concentration) 200-fold higher concentration. Compound of Formula (1a) was tested at the concentration of 0.0001 μM, 0.001 μM, 0.01 μM, 0.03 μM, 0.1 μM, 0.3 μM, 1 μM and 3 μM respectively. Each concentration was evaluated in triplicate.
Method for determination of IC50 of the compound of Formula (1a): • a) Different cancer/normal cells were seeded at a density of 3000 cells/200 μL well, in a tissue culture grade 96 well plate and allowed them to recover for 24 hrs in a humidified 5±0.2% CO2 incubator at 37±0.5° C. • b) After 24 hrs, 1 μL of 200× (200 times higher than required concentration is denoted as 200×) compound of Formula (1a), dissolved in DMSO, was added to the above tissue culture plate seeded with cancer/normal cells. The final concentration of DMSO was 0.5% in wells. DMSO was used as a vehicle control. • c) After 24 hrs the plate was removed from CO2 incubator and 5 μL of CCK-8 (Dojindo Molecular Technologies, Inc. USA, catalog, no. CK04-20) per well was added. • d) The plate was then placed at 37° C. for 2 hrs. • e) The absorbance was recorded at 450 nm. • f) The percent cytotoxicity was calculated using the following formula
The IC50 value was estimated by visual inspection of the concentration-effect curve. For calculation of mean IC50 values over the fourteen cell lines as tested, the geometric mean was selected.

[1] = test system: cleaved caspase 3 in HeLa cells; experiment: Protein expression by high content screening (Cellomics); assay type: cell-based, human; details: for Fold activation with respect to control cells, Cleaved Caspase 3: HeLa cells, after 3 hours
Experimental: (§1) Protein expressions of cyclin D, nuclear factor-kappa B (p65) [NFkB (p65)], ribosomal protein S6 (pS6), tumor protein 53 (p53), protein c-jun N-terminal kinase (pJNK), cleaved caspase 9, cleaved caspase 3 and cleaved poly(ADP-ribose) polymerase (PARP) was carried out in HeLa cells [referred to in step 1 of example 16] by Cellomics high content imaging. These primary antibodies were purchased from Santacruz Biotechnology, USA. Briefly 1×10^4 cells were seeded in 96 well tissue culture grade black plate with transparent bottom (Nunc, USA), and allowed to adhere for 24 h, and then replaced with fresh media, and cells were treated with 0.01 μM, 0.003 μM and 0.0003 μM concentrations of compound of Formula (1) [referred to in step 2 of example 16] and incubated for 1 h and 3 h respectively. After respective time point, cells were fixed with 3.7% formaldehyde (Sigma St. Louis, Mo.) for 10 minutes at RT, followed by permeabilization with 0.15% Triton X-100 (Sigma St. Louis, Mo.) for 10 minutes. Then the cells were blocked with 5% Bovine Serum Albumin for 2 hours. After blocking step, specific primary antibodies were added for 1 h, and primary antibodies of different protein were localized by secondary antibody labeled with Dylight548 (red) (Thermofisher, USA). Following secondary incubation, the nucleus was stained with Hoechst 3342 (blue) (Sigma, USA). Immunofluorescence was determined by scanning the plates on Cellomics Array Scan® VTI HCS Reader (Thermo-Fisher Scientific Inc., Waltham, Mass.). All the data points were analyzed using the Compartmental Analysis bio-algorithm of Cellomics and quantitative data were expressed as % activation in comparison to the untreated cells. 1000 cells were counted for each replicate well and the results were presented as an average±S.E.

[2] = test system: cleaved caspase 9 in HeLa cells; experiment: as above; assay type: cell-based, human; details: for Fold activation with respect to control cells, Cleaved Caspase 9: HeLa cells, after 3 hours
Experimental: as §1

[3] = test system: cleaved poly(ADP-ribose) polymerase (PARP) in HeLa cells; experiment: as above; assay type: cell-based, human; details: for Fold activation with respect to control cells, Cleaved PARP: HeLa cells, after 3 hours
Experimental: as §1

cyclin D in HeLa cells = experiment: as above; assay type: cell-based, human; details: for Fold down regulation with respect to control cells, Cyclin D: HeLa cells, after 3 hours
Experimental: as §1

[4] = test system: nuclear factor-kappa B (p65) [NFkB (p65)] in HeLa cells; experiment: as above; assay type: cell-based, human; details: for Fold down regulation with respect to control cells, NFkB (p65): HeLa cells, after 3 hours
Experimental: as §1

[5] = test system: protein c-jun N-terminal kinase (pJNK) in HeLa cells; experiment: as above; assay type: cell-based, human; details: for Fold activation with respect to control cells, pJNK: HeLa cells, after 3 hours
Experimental: as §1

[6] = test system: ribosomal protein S6 (pS6) in HeLa cells; experiment: as above; assay type: cell-based, human; details: for Fold down regulation with respect to control cells, pS6: HeLa cells, after 3 hours
Experimental: as §1

[7] = test system: tumor protein 53 (p53) in HeLa cells; experiment: as above; assay type: cell-based, human; details: for Fold activation with respect to control cells, P53: HeLa cells, after 3 hours
Experimental: as §1

For `CC(C)CC1CCC(O)(C(C)(O)C(=O)NC2C(=O)N3NCCCC3C(=O)N(O)C(C)C(=O)NCC(=O)N3NCCCC3C(=O)N(O)C(C)C(=O)OC2C(C)C)OC1C` (stereo not drawn) [Formula (1a), N-(6,18-dihydroxy-22-isopropyl-7,19-dimethyl-5,8,11,17,20,24-hexaoxotetracosa hydrodipyridazino[6,1-f:6′,1′-o][1,4,7,10,13,16]oxapentaazacyclononadecin-23-yl)-2-hydroxy-2-(2-hydroxy-5-isobutyl-6-methyltetrahydro-2H-pyran-2-yl)propanamide], the IC50 (HeLa (Cervical Cancer)) was 10.1 ± 3.1 nM, the “Fold activation with respect to control cells, Cleaved Caspase 3” value (“Fold activation … Cleaved Caspase 3” below) ([1]; 0.0003 μM) was −0.04 fold and the “Fold activation … Cleaved Caspase 3” value ([1]; 0.003 μM) was 0.53 fold. The “Fold activation … Cleaved Caspase 3” value ([1]; 0.01 μM) was 1.62 fold, the “effect on cleaved caspase 3 (in words)” value ([1]; cancer cells, conclusion) was “prominent upregulation” and the “Fold activation with respect to control cells, Cleaved Caspase 9” value (“Fold activation … Cleaved Caspase 9” for short) ([2]; 0.0003 μM) was −0.04 fold. For the same compound, the “Fold activation … Cleaved Caspase 9” value ([2]; 0.003 μM) was 0.53 fold, the “Fold activation … Cleaved Caspase 9” value ([2]; 0.01 μM) was 2.22 fold and the “effect on cleaved caspase 9 expression (in words)” value ([2]; cancer cells, conclusion) was “up-regulates”. The “Fold activation with respect to control cells, Cleaved PARP” value (from here on “Fold activation … Cleaved PARP”) ([3]; 0.0003 μM) was 0.52 fold, the “Fold activation … Cleaved PARP” value ([3]; 0.003 μM) was 1.09 fold and the “Fold activation … Cleaved PARP” value ([3]; 0.01 μM) was 1.51 fold. For the same compound, the “effect on cleaved PARP (in words)” value ([3]; cancer cells, conclusion) was “prominent upregulation”, the “Fold down regulation with respect to control cells, Cyclin D” value (“Fold down regulation … Cyclin D” for short) (cyclin D in HeLa cells; 0.0003 μM) was −0.57 fold and the “Fold down regulation … Cyclin D” value (cyclin D in HeLa cells; 0.003 μM) was −0.89 fold. For the same compound, the “Fold down regulation … Cyclin D” value (cyclin D in HeLa cells; 0.01 μM) was −3.81 fold, the “effect on cyclin D protein expression (in words)” value (cyclin D in HeLa cells; cancer cells, conclusion) was “significantly downregulates” and the “Fold down regulation with respect to control cells, NFkB (p65)” value (from here on “Fold down regulation … (p65)”) ([4]; 0.0003 μM) was −0.46 fold. The “Fold down regulation … (p65)” value ([4]; 0.003 μM) was −0.80 fold, the “Fold down regulation … (p65)” value ([4]; 0.01 μM) was −1.86 fold and the “effect on NFkB (p65) protein expression (in words)” value ([4]; cancer cells, conclusion) was “significantly downregulates”. For the same compound, the “Fold activation with respect to control cells, pJNK” value (“Fold activation … pJNK” for short) ([5]; 0.0003 μM) was 0.55 fold, the “Fold activation … pJNK” value ([5]; 0.003 μM) was 0.85 fold and the “Fold activation … pJNK” value ([5]; 0.01 μM) was 2.42 fold. For the same compound, the “effect on pJNK expression (in words)” value ([5]; cancer cells, conclusion) was “up-regulates”, the “Fold down regulation with respect to control cells, pS6” value (“Fold down regulation … pS6” for short) ([6]; 0.0003 μM) was −0.42 fold and the “Fold down regulation … pS6” value ([6]; 0.003 μM) was −0.56 fold. For the same compound, the “Fold down regulation … pS6” value ([6]; 0.01 μM) was −1.97 fold, the “effect on pS6 protein expression (in words)” value ([6]; cancer cells, conclusion) was “significantly downregulates” and the “Fold activation with respect to control cells, P53” value (“Fold activation … P53” for short) ([7]; 0.0003 μM) was −0.15 fold. The “Fold activation … P53” value ([7]; 0.003 μM) was 0.55 fold, the “Fold activation … P53” value ([7]; 0.01 μM) was 2.27 fold and the “effect on p53 expression (in words)” value ([7]; cancer cells, conclusion) was “up-regulates”.
